Reference: patent US8569279B2, “Method for modulating claudin mediated functions” (Sucampo AG, priority 2008, dated 2013)

Experiments:
[1] = system: claudin-15 protein; assay: Expression of claudin proteins in mouse intestine (immunofluorescence staining); format: in vivo; conditions: 10 μM in drinking water for 7 to 14 days, immunofluorescence staining of frozen slices, FIG. 2
Protocol: (Method) Treatment of mice and removal of intestine were conducted by similar way mentioned above. The removed intestine was frozen in liquid nitrogen and frozen slices were prepared. Expressions and intracellular distribution of claudin-15 protein were determined with immunofluorescence staining. […] (Conclusion) Continuous administration of Compound A caused expression changes of tight junction proteins, such as the decrease of claudin-15 which induces changes of electrophysiological property of the tight junction. Decrease of the expression of claudin-15 in the tight junction resulted to enhance the tightness of the tight junction and strengthen the epithelial sheet against toxic substances.

[2] = system: epithelial tight junction, mouse intestine (jejunum mucosa); assay: Tissue conductance and dilution potentials in normal mouse intestines after Compound A in drinking water; format: in vivo; conditions: male C57BL/6 mice, 10 μM in drinking water for 7 to 14 days, jejunum mucosa in chamber, FIG. 1
Protocol: (Method) Male C57BL/6 mice (7-8 weeks old) were administered with 10 μM Compound A in the drinking water and fed standard diet for 7 to 14 days. During the period, the mice could drink the water freely. At the conclusion of this period, the mice were sacrificed and the intestines were removed. Approximately 5 cm sections were cut from tip of the jejunum. The intestine section was opened from ventral side, and then it was washed several Limes with Ringer solution. The mucosa of the intestine was carefully stripped from the serosa using forceps. The mucosa was mounted in a standard chamber (5 mm in diameter of exposed surface area) and bathed with buffer solution. Transepithelial short-circuit current (Isc) was measured and total tissue conductance was determined by measuring the current deflections resulting from a 1 mV/min transepithelial pulse and applying Ohm's law. When stable measurement of Isc was achieved, the buffer solution was replaced with potassium-free solution. The solution in the luminal bath were then replaced with the solution containing […], 150 mM LiCl, 150 mM KCl, 75 mM MgCl2 and 75 mM CaCl2, in turn, and dilution potentials in each solution were measured.

[3] = system: skin ulcer and/or bedsore animal model, db/db mice; assay: Skin ulcer healing in genetically-diabetic mice (db/db mice); format: in vivo, mouse; conditions: topical twice a day for 12 days; for Ulcer area, %: Day 13 relative to Day 1, mean ± standard error, control 70.0 ± 5.7
Excerpt: Female BKS.Cg−+Lepr^db/+Lepr^db/Jcl mice (db/db mice, SPF; CLEA Japan, Inc.), genetically-diabetic mice, were used for the present study. After the removal of the dorsal hair, the skin covering an area of 1.5×1.5 cm centered on the dorsal median was excised using ophthalmic scissors under anesthesia to make a skin ulcer and/or bedsore animal model. Then the excised skin area (ulcer area) was covered with porous film dressing measuring 4×4 cm. The dosing preparation was applied to the ulcer area at a dosage volume of 0.1 mL per site. The application was performed twice a day for 12 days from the day of preparation of the ulcers. Compound B: (−)-7-{(2R,4aR,5R,7aR)-2-[(3S)-1,1-difluoro-3-methylpentyl]-2-hydroxy-6-oxooctahydrocyclopenta[b]pyran-5-yl}heptanoic acid at 10 or 30 micro-g/site was applied to the ulcer per time. The same volume of the vehicle (physiological saline solution containing 1% polysorbate 80: 1% PS80) was applied to the animals in the control group. The day of the start of the application was defined as Day 1. On the Day 1 and Day 13, the frontal edge of the epidermis or the regeneration epidermis of each ulcer was traced on a plastic sheet. The traced ulcer area was measured with an area-line meter. The ulcer area (%) on Day 13 was calculated on the basis of the ulcer area on Day 1. Group mean values with standard errors were calculated for ulcer area (%).

Row | Compound | expression of claudin-15 protein [1] | dilution potential of univalent cations compared to no-treatment group [2] | total tissue conductance compared to no-treatment group [2] | ulcer healing as compared to the control group ([3]; 10 and 30 micro-g/site) | Ulcer area, % ([3]; 10 micro-g/site) [%] | Ulcer area, % ([3]; 30 micro-g/site) [%]
1 | CCCCC(F)(F)[C@@]1(O)CC[C@H]2[C@@H](CC(=O)[C@@H]2CCCCCCC(=O)O)O1 [Compound A, (−)-7-[(2R,4aR,5R,7aR)-2-(1,1-Difluoropentyl)-2-hydroxy-6-oxooctahydrocyclopenta[b]pyran-5-yl]heptanoic acid] | decreased | decrease | decrease | – | – | –
2 | CC[C@H](C)CC(F)(F)[C@@]1(O)CC[C@H]2[C@@H](CC(=O)[C@@H]2CCCCCCC(=O)O)O1 [Compound B, (−)-7-{(2R,4aR,5R,7aR)-2-[(3S)-1,1-difluoro-3-methylpentyl]-2-hydroxy-6-oxooctahydrocyclopenta[b]pyran-5-yl}heptanoic acid] | – | – | – | significantly accelerated the ulcer healing | 43.1 ± 4.2 | 41.1 ± 3.1
